Experiments:
VCaP cells = test: VCaP growth inhibition assay; type: cell-based; conditions: 30 pM R1881, 9 days, CTG
Method: VCaP cells (ATCC Cat #CRL-2876) are plated at 1×10^4 cells per well of a white plastic 96-well cluster plate (Thermo Scientific Nunc Cat #165306) in 100 uL phenol red-free DMEM (Gibco Cat #21063-029) media with 5% CSS (Omega Scientific Cat #FB-04). Cluster plates are returned to the incubator (37*C/5% CO2) for 72 hours prior to treatment. Just prior to treatment, 100 μL of phenol red-free DMEM/5% CSS and […] R1881 (Sigma Cat #R0908-10 mg) was added to each well of the cluster plates (Final R1881 concentration=30 pM). Compounds (200×) were added to each well in a volume of 1 uL, with serial dilutions (1:5) from 20 uM to 2 pM (final concentrations in well are 100 nM to 10 fM). Cluster plates are returned to the incubator for 9 days.
After the 9-day treatment period, media was removed from the cluster plates by inversion and 100 uL room temperature CTG reagent (Promega Cat #G7573) is added to each well. The cluster plates are placed on a shaker and incubated at room temperature for 20 minutes. Following this shaking/incubation, cluster plates are read on a luminometer (BMG ClarioStar). IC50 values are obtained by graphing the RLU data vs. compound concentration with nonlinear regression 4-parameter logistic curves (GraphPad Prism).

AR / CBP ternary complex = test: Ternary complex formation assay (sandwich ELISA, AR capture / CBP detection) in VCaP cell lysates; type: cell-based; conditions: 1.5 hours treatment, sandwich ELISA (AR capture, CBP or p300 detection)
In short: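 Anti-AR (AR 441)-coated plates capture AR from lysates of VCaP cells grown ≥3 days at 50K/well in 5% charcoal-stripped FBS, dosed with bifunctional for 1.5 h and lysed 30 min at 4 °C. Co-captured CBP/p300 is probed with rabbit mAb and HRP anti-rabbit, then QuantaRed fluorescence (570/585) is read at 0, 5 and 15 min.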

IC50 (VCaP cells) [nM] | EC50 (AR / CBP ternary complex) [nM] | Compound
≤ 0.1 | < 1 | CC(=O)N1CCc2c(c(N3CCCc4cc(-c5cnn(C)c5)c(C(F)F)cc43)nn2C2CC3(CCN(C4CCN(c5ncc(C(=O)NC6C(C)(C)C(Oc7ccc(C#N)c(Cl)c7)C6(C)C)cn5)CC4)CC3)C2)C1 (stereo not shown) [Compound 373, 2-[4-[2-[5-acetyl-3-[7-(difluoromethyl)-6-(1-methylpyrazol-4-yl)-3,4-dihydro-2H-quinolin-1-yl]-6,7-dihydro-4H-pyrazolo[4,3-c]pyridin-1-yl]-7-azaspiro[3.5]nonan-7-yl]-1-piperidyl]-N-[3-(3-chloro-4-cyano-phenoxy)-2,2,4,4-tetramethyl-cyclobutyl]pyrimidine-5-carboxamide]
0.1 to 1 | < 1 | COc1cc(OC2C(C)(C)C(NC(=O)c3ccc(N4CCC(CN5CCC(n6nc(N7CCCc8cc(-c9cnn(C)c9)c(C)cc87)c7c6CCN(C(C)=O)C7)CC5)C(C)(C)C4)cc3)C2(C)C)ccc1C#N (stereo not shown) [Compound 447, 4-[4-[[4-[5-acetyl-3-[7-methyl-6-(1-methylpyrazol-4-yl)-3,4-dihydro-2H-quinolin-1-yl]-6,7-dihydro-4H-pyrazolo[4,3-c]pyridin-1-yl]-1-piperidyl]methyl]-3,3-dimethyl-1-piperidyl]-N-[3-(4-cyano-3-methoxy-phenoxy)-2,2,4,4-tetramethyl-cyclobutyl]benzamide]
1 to 100 | 1 to 10 | COc1cc(OC2C(C)(C)C(NC(=O)c3ccc(N4CC(N5CCCC6(CCC(n7nc(N8CCCc9cc(-c%10cnn(C)c%10)c(C(F)F)cc98)c8c7CCN(C(C)=O)C8)CC6)C5)C4)cc3)C2(C)C)ccc1C#N (stereo not shown) [Compound 415, 4-[3-[9-[5-acetyl-3-[7-(difluoromethyl)-6-(1-methylpyrazol-4-yl)-3,4-dihydro-2H-quinolin-1-yl]-6,7-dihydro-4Hpyrazolo[4,3-c]pyridin-1-yl]-2-azaspiro[5.5]undecan-2-yl]azetidin-1-yl]-N-[3-(4-cyano-3-methoxy-phenoxy)-2,2,4,4-tetramethyl-cyclobutyl]benzamide]
≤ 0.1 | < 1 | CC(=O)N1CCc2c(c(-c3cccc4cc(-c5ccc(CCC6CC7(C6)CN(c6ncc(C(=O)NC8C(C)(C)C(Oc9ccc(C#N)c(Cl)c9)C8(C)C)cn6)C7)nc5)ncc34)nn2C2CCOCC2)C1 (stereo not shown) [Compound 227, 2-[6-[2-[5-[8-(5-acetyl-1-tetrahydropyran-4-yl-6,7-dihydro-4H-pyrazolo[4,3-c]pyridin-3-yl)-3-isoquinolyl]-2-pyridyl]ethyl]-2-azaspiro[3.3]heptan-2-yl]-N-[3-(3-chloro-4-cyano-phenoxy)-2,2,4,4-tetramethyl-cyclobutyl]pyrimidine-5-carboxamide]
1 to 100 | < 1 | CN1C(=O)CCc2cc(N3CCCc4cc(-c5ccc(CCC6CCN(c7ncc(C(=O)NC8C(C)(C)C(Oc9ccc(C#N)c(Cl)c9)C8(C)C)cn7)CC6)nc5)c(C(F)F)cc43)ccc21 (stereo not shown) [Compound 239, N-[3-(3-chloro-4-cyano-phenoxy)-2,2,4,4-tetramethyl-cyclobutyl]-2-[4-[2-[5-[7-(difluoromethyl)-1-(1-methyl-2-oxo-3,4-dihydroquinolin-6-yl)-3,4-dihydro-2H-quinolin-6-yl]-2-pyridyl]ethyl]-1-piperidyl]pyrimidine-5-carboxamide]
≤ 0.1 | < 1 | CC(=O)N1CCc2c(c(N3CCCc4cc(-c5cnn(C)c5)c(C(F)F)cc43)nn2C2CCN(CC3C(C)CN(c4ncc(C(=O)NC5C(C)(C)C(Oc6ccc(C#N)c(C)c6C)C5(C)C)cn4)CC3C)CC2)C1 (stereo not shown) [Compound 461, 2-[4-[[4-[5-acetyl-3-[7-(difluoromethyl)-6-(1-methylpyrazol-4-yl)-3,4-dihydro-2H-quinolin-1-yl]-6,7-dihydro-4H-pyrazolo[4,3-c]pyridin-1-yl]-1-piperidyl]methyl]-3,5-dimethyl-1-piperidyl]-N-[3-(4-cyano-2,3-dimethyl-phenoxy)-2,2,4,4-tetramethyl-cyclobutyl]pyrimidine-5-carboxamide]
0.1 to 1 | 1 to 10 | CC(=O)N1CCc2c(c(N3CCCc4cc(-c5cnn(C)c5)c(C(F)F)cc43)nn2C2CCN(c3ncc(C(=O)NC4C(C)(C)C(Oc5ccc(C#N)c(Cl)c5)C4(C)C)cn3)CC2)C1 (stereo not shown) [Compound 95, 2-[4-[5-acetyl-3-[7-(difluoromethyl)-6-(1-methylpyrazol-4-yl)-3,4-dihydro-2H-quinolin-1-yl]-6,7-dihydro-4H-pyrazolo[4,3-c]pyridin-1-yl]-1-piperidyl]-N-[3-(3-chloro-4-cyano-phenoxy)-2,2,4,4-tetramethyl-cyclobutyl]pyrimidine-5-carboxamide]
≤ 0.1 | < 1 | COc1cc(OCC(C)(C)[C@H](NC(=O)c2ccc(N3CCN(CC4CCC(n5nc(N6CCCc7cc(-c8cnn(C)c8)c(C(F)F)cc76)c6c5CCN(C(C)=O)C6)CC4)CC3)cc2)C(C)C)ccc1C#N (stereo partly drawn) [Compound 317, 4-[4-[[4-[5-acetyl-3-[7-(difluoromethyl)-6-(1-methylpyrazol-4-yl)-3,4-dihydro-2H-quinolin-1-yl]-6,7-dihydro-4H-pyrazolo[4,3-c]pyridin-1-yl]cyclohexyl]methyl]piperazin-1-yl]-N-[(1R)-3-(4-cyano-3-methoxy-phenoxy)-1-isopropyl-2,2-dimethyl-propyl]benzamide]
> 100 | > 100 | C[C@@H]1CC(=O)Nc2cccc(-c3ccc4c(c3)c(-c3cnn(C)c3)nn4CCCN3CCN(c4ncc(C(=O)NC5C(C)(C)C(Oc6ccc(C#N)c(Cl)c6)C5(C)C)cn4)CC3)c2N1 (stereo partly drawn) [Compound 55, N-[3-(3-chloro-4-cyano-phenoxy)-2,2,4,4-tetramethyl-cyclobutyl]-2-[4-[3-[5-[(4R)-4-methyl-2-oxo-1,3,4,5-tetrahydro-1,5-benzodiazepin-6-yl]-3-(1-methylpyrazol-4-yl)indazol-1-yl]propyl]piperazin-1-yl]pyrimidine-5-carboxamide]
0.1 to 1 | < 1 | COc1cc(OC2C(C)(C)C(NC(=O)c3ccc(C#CC4CC(N5CCC(n6nc(N7CCCc8cc(-c9cnn(C)c9)c(C(F)F)cc87)c7c6CCN(C(C)=O)C7)CC5)C4)cc3)C2(C)C)ccc1C#N (stereo not shown) [Compound 294, 4-[2-[3-[4-[5-acetyl-3-[7-(difluoromethyl)-6-(1-methylpyrazol-4-yl)-3,4-dihydro-2H-quinolin-1-yl]-6,7-dihydro-4H-pyrazolo[4,3-c]pyridin-1-yl]-1-piperidyl]cyclobutyl]ethynyl]-N-[3-(4-cyano-3-methoxy-phenoxy)-2,2,4,4-tetramethyl-cyclobutyl]benzamide]
0.1 to 1 |  | COc1cc(OC2C(C)(C)C(NC(=O)c3ccc(N4CCC(N5CCC(n6cc(-c7cc8cccc(-c9nn(C%10CCOCC%10)c%10c9CN(C(C)=O)CC%10)c8cn7)cn6)CC5)CC4)cc3)C2(C)C)ccc1C#N (stereo not shown) [Compound 270, 4-[4-[4-[4-[8-(5-acetyl-1-tetrahydropyran-4-yl-6,7-dihydro-4H-pyrazolo[4,3-c]pyridin-3-yl)-3-isoquinolyl]pyrazol-1-yl]-1-piperidyl]-1-piperidyl]-N-[3-(4-cyano-3-methoxy-phenoxy)-2,2,4,4-tetramethylcyclobutyl]benzamide]
0.1 to 1 |  | CC(=O)N1CCc2c(c(N3CCCc4cc(-c5cnn(C)c5)c(C(F)F)cc43)nn2CCN2CCN(c3ncc(C(=O)NC4C(C)(C)C(Oc5ccc(C#N)c(Cl)c5)C4(C)C)cn3)CC2)C1 (stereo not shown) [Compound 52, 2-[4-[2-[5-acetyl-3-[7-(difluoromethyl)-6-(1-methylpyrazol-4-yl)-3,4-dihydro-2H-quinolin-1-yl]-6,7-dihydro-4H-pyrazolo[4,3-c]pyridin-1-yl]ethyl]piperazin-1-yl]-N-[3-(3-chloro-4-cyano-phenoxy)-2,2,4,4-tetramethyl-cyclobutyl]pyrimidine-5-carboxamide]

Compound | IC50 (VCaP cells) [nM] | EC50 (AR / CBP ternary complex) [nM]
COc1cc(OC2C(C)(C)C(NC(=O)c3ccc(N4CCC(C(=O)N5CCC(n6nc(-c7cccc8cc(C9CC9)ncc78)c7c6CCN(C(C)=O)C7)CC5)CC4)cc3)C2(C)C)ccc1C#N (stereo not shown) [Compound 256, 4-[4-[4-[5-acetyl-3-(3-cyclopropyl-8-isoquinolyl)-6,7-dihydro-4H-pyrazolo[4,3-c]pyridin-1-yl]piperidine-1-carbonyl]-1-piperidyl]-N-[3-(4-cyano-3-methoxy-phenoxy)-2,2,4,4-tetramethyl-cyclobutyl]benzamide] | 0.1 to 1 | < 1
CC(=O)N1CCc2c(c(N3CCCc4cc(-c5cnn(C)c5)c(C(F)F)cc43)nn2C2CCC3(CC2)CCN(c2ccc4c(n2)CN(C2C(C)(C)C(Oc5ccc(C#N)c(Cl)c5)C2(C)C)C4=O)CC3)C1 (stereo not shown) [Compound 298, 4-[3-[2-[9-[5-acetyl-3-[7-(difluoromethyl)-6-(1-methylpyrazol-4-yl)-3,4-dihydro-2H-quinolin-1-yl]-6,7-dihydro-4H-pyrazolo[4,3-c]pyridin-1-yl]-3-azaspiro [5.5]undecan-3-yl]-5-oxo-7H-pyrrolo[3,4-b]pyridin-6-yl]-2,2,4,4-tetramethyl-cyclobutoxy]-2-chloro-benzonitrile] | > 100 | 

From patent US20250129070A1, “BIFUNCTIONAL ANDROGEN RECEPTOR COMPOUNDS” (priority 2023, published 2025)
